Measured values: US9663561B2, “Methods of treatment of cancer using SRC-modulating peptides” (The University of Toledo, priority 2006, dated 2017)

Tests used:
LLC-PK1 cells [1] = test: Recruitment of Src to the Na+/K+-ATPase signaling complex (co-immunoprecipitation); assay type: cell-based, pig; settings: 1 μM ouabain 5 min, control cells
Procedure: FIG. 9C Inhibition of Src blocks ouabain-induced recruitment of Src to the Na+/K+-ATPase signaling complex. LLC-PK1 cells were pretreated with 1 μM PP2 or PP3 for 15 min and then exposed to 1 μM ouabain for 5 min. Cell lysates were immunoprecipitated and analyzed. Values are mean±SE of at least four independent experiments. * p<0.05.
(§1) Cells were lysed in RIPA buffer containing 1% Nonidet P40, 0.25% sodium deoxycholate, 150 mM NaCl, 1 mM EDTA, 1 mM phenylmethylsulfonyl fluoride, 1 mM sodium orthovanadate, 1 mM NaF, 10 μg/ml aprotinin, 10 μg/mlleupeptin, and 50 mM Tris-HCl (pH 7.4). Cell lysates were cleared by centrifugation at 16,000×g for […], and the supernatants (1 mg) were either immunoprecipitated with anti-α1 antibody or incubated with different GST-fusion proteins. The complexes were then pulled down by either protein G agarose or glutathione beads (Ma et al., 2000; Haas et al., 2002) and analyzed by Western blot.

[2] = biological target: T1, Src-ECFP and EYFP-rat α1 in LLC-PK1 cells (Rattus norvegicus, UniProt P06685); test: FRET analysis in live cells; assay type: cell-based, pig; settings: 100 μM ouabain, live LLC-PK1 cell
T1 construct: expressed in transfected cells; host or cells: LLC-PK1 (pig kidney)
Procedure: LLC-PK1 cells were cotransfected with Src-ECFP and EYFP-rat α1 and grown on a glass coverslip for 24 h. The coverslip was then mounted in a metal chamber and analyzed with a Leica DMIRE2 confocal microscope. The laser lines of 456 nm and 515 nm were used to illuminate fluorescence, and the emission intensities were recorded at 465-509 nm for Src-ECFP and 530-570 nm for EYFP-rat α1. The cell that expresses both Src-ECFP and EYFP-rat α1 was chosen and illuminated by only 456-nm laser. The cells express only Src-ECFP or EYFP-rat α1 were used for correction and determination of the laser intensity as well as the gain and offset settings. The emission intensities for both Src-ECFP and EYFP-rat α1 in selected membrane region was recorded at 465-509 nm (FECFP) and 530-570 nm (FEYEP), respectively. The FRET efficiency was reflected by the ratio of FEYFP/FECFP. After 50 s of recording, the same cell was exposed to ouabain and the recording was continued for indicated time.

[3] = tested on: Na+/K+-ATPase/Src complex; test: Effect of ouabain on binding of GST-Src constructs to Na+/K+-ATPase; settings: 10 μM ouabain, 15 min
Procedure: FIG. 7C. A representative Western blot of four separate experiments showing that ouabain induced the release of the kinase domain from the Na+/K+-ATPase. […] Complexes were then pulled down on glutathione beads, washed three times, resuspended in 500 μl PBS, and exposed to 10 μM ouabain for 15 min. The beads were then washed for three more times using PBS, and the pulled down Na+/K+-ATPase was analyzed by Western blot using anti-α1 antibody
Because the inventors have shown that multiple domains are involved in Src interaction with the Na+/K+ATPase, the above findings led us to test if ouabain dissociates only a single (kinase) domain from the interacting Na+/K+-ATPase. […] Afterward, the complexes were exposed to 10 μM ouabain.

LLC-PK1 cells [4] = test: Tyrosine phosphorylation of Na+/K+-ATPase-associated proteins (anti-α1 immunoprecipitation); assay type: cell-based, pig; settings: 1 μM ouabain, 5 min
Procedure: FIG. 9A. LLC-PK1 cells were treated with 1 μM ouabain for 5 min, and cell lysates were immunoprecipitated with anti-α1 antibody and analyzed for tyrosine phosphorylated proteins.
as §1

[5] = biological target: T2, Na+/K+-ATPase/Src complex (Sus scrofa, UniProt P05024); test: Src kinase activity (commercial kit) of Na+/K+-ATPase-bound Src; assay type: biochemical; settings: 10 μM ouabain
T2 construct: Na+/K+-ATPase was purified from pig kidney outer medulla using the Jorgensen method; tissue Upstate Biotechnology (Src only); host or cells: pig kidney outer medulla (Na+/K+-ATPase)
Procedure: The Src kinase activity was assayed using a commercial kit (Haas et al., 2000). To determine how Na+/K+-ATPase affects Src kinase activity, the purified Src (4.5 U) was incubated with 5 μg of the purified Na+/K+-ATPase in the Src assay buffer for 30 min at room temperature. Afterward, both control Src or the Na+/K+-ATPase-bound Src were exposed to 10 μM ouabain and Src kinase activity was determined. In other experiments, the Src pY418 was measured by anti-pY418 antibody to indicate Src activation (Ma et al., 2000). To do so, the purified Src (4.5 U) was incubated with different amounts of the purified Na+/K+-ATPase or GST-Na+/K+ATPase constructs in phosphate-buffered saline (PBS) for 30 min at 37° C. Afterward, 2 mM ATP/Mg2+ was added. The reaction continued for 5 min at 37° C. and was stopped by addition of SDS sample buffer.

[6] = biological target: T3, purified pig kidney Na+/K+-ATPase (Sus scrofa, UniProt P05024); test: ATPase activity of purified pig kidney Na+/K+-ATPase; assay type: biochemical; settings: 10 μM ouabain
T3 construct: Na+/K+-ATPase was purified from pig kidney outer medulla using the Jorgensen method; from tissue; host or cells: pig kidney outer medulla
Source text: Src, without the first 85 amino acid residues, was purified from sf-9 cells as described (Ma et al., 2000) and used in the initial binding assays to ensure that Src binds to the Na+/K+-ATPase, but not the lipid composition in the purified Na+/K+-ATPase preparation. In subsequent experiments (e.g., phosphorylation and activity assays), purified recombinant full-length Src from Upstate Biotechnology was used. Na+/K+-ATPase was purified from pig kidney outer medulla using the Jorgensen method (Xie et al., 1996) and the preparations with specific activities between 1200 and 1400 μmol Pi/mg/h were used.
GST fusion proteins or His-tagged proteins were expressed in Escherichia coli BL21 and purified on glutathione beads or nickel column.

[7] = biological target: T4, GFP-canine α1 and Src-Rluc in 293T cells (Canis lupus familiaris, UniProt P50997); test: BRET analysis; assay type: cell-based, human
T4 construct: expressed in transfected cells; host or cells: 293T (human embryo kidney)
Procedure: BRET assay was done as described by Lowry et al. (2002). Briefly, 24 h after transfection with GFP-Na+/K+-ATPase and Src-Rluc or other constructs as indicated, cells were seeded in triplicate in a 96-well microplate. After treatment with indicated concentration of ouabain, cells were exposed to equal volume of BRET analysis buffer containing 10 μM DeepBlue C, the substrate of Rluc. The emission at 410 nm (for Rluc) and 515 nm (for GFP) was immediately acquired using a Fluoroskan Ascent FL (Labsystems, Franklin, Mass.) with microplate luminometric detection. The BRET ratio was calculated as follows: (Emission at 515 nm−Background at 515 nm)/(Emission at 410 nm−Background at 410 nm), where Background signal was assessed in each experiment by measuring the signal of a sample of nontransfected cells.

C[C@@H]1O[C@@H](O[C@H]2C[C@@H](O)[C@]3(CO)[C@H]4[C@H](O)C[C@]5(C)[C@@H](C6=CC(=O)OC6)CC[C@]5(O)[C@@H]4CC[C@]3(O)C2)[C@H](O)[C@H](O)[C@H]1O [ouabain]
Src coprecipitated with α1 (LLC-PK1 cells [1]): increased coprecipitated Src | FRET between Src-ECFP and EYFP-rat α1 [2]: reduction in FRET | binding of Src kinase domain to the Na+/K+-ATPase [3]: dissociated the kinase domain | binding of full-length Src or SH3SH2 domain to the Na+/K+-ATPase [3]: no effect on the binding of either full-length Src or the SH3SH2 domain | tyrosine phosphorylation of Na+/K+-ATPase-associated proteins (LLC-PK1 cells [4]): stimulated tyrosine phosphorylation | Src kinase activity of Na+/K+-ATPase-bound Src [5]: restored the kinase activity | inhibition of the ATPase activity [6]: complete inhibition | ouabain concentration at which significant decrease in BRET ratio was detected [7]: 10 nM | BRET ratio ([7]; different concentrations of ouabain): dose-dependent decrease in the BRET ratio
